Tested on: Clostridium difficile (strain VPI 10463 (ATCC-43255))
Assay: Mouse model of Clostridium difficile infection, disease-associated phenotypes and spore carriage
Type: in vivo, Mice (female C57BL/6)
Protocol: This experiment was conducted to analyze the effects of glycan therapeutics in a mouse model of Clostridium difficile infection (Chen et al, 2008, A Mouse Model of Clostridium difficile-Associated Disease. Gastroenterology 135(6), 1984-1992). In this model, normal mice were exposed to an antibiotic regimen that renders them susceptible to C. difficile infection and disease symptoms, similar with respect to their development and manifestation of human clinical disease. In humans, the disease is most often the result of exposure to broad spectrum antibiotics which is thought to result in intestinal dysbiosis and subsequent increased colonic colonization with C. difficile. […]
Disease-associated phenotypes were recorded for a duration of ten days starting on the day of Clostridium difficile challenge (on day 0) through day 10. The phenotypes, including lethargy, hunched posture and ruffled coat, wet tail/abdomen and hypothermia were scored from 0 to 4: Normal=0; Lethargic=1; Lethargic+Hunched=2; Lethargic+Hunched+Wet tail/abdomen (diarrhea)=3; and Lethargic+Hunched+Wet tail/abdomen+Hypothermic=4. Death (day 0 to day 10 or 11) and weight (day 1 to day 7 and day 10) of the animals was also monitored and recorded.
In addition, carriage of Clostridium difficile spores, which is indicative of Clostridium difficile gut colonization in both mice and humans, was assessed daily from day 0 to day 6. […]

`CN[C@H](CC(C)C)C(=O)N[C@H]1C(=O)N[C@@H](CC(N)=O)C(=O)N[C@H]2C(=O)N[C@H]3C(=O)N[C@H](C(=O)N[C@H](C(=O)O)c4cc(O)cc(O)c4-c4cc3ccc4O)[C@H](O)c3ccc(c(Cl)c3)Oc3cc2cc(c3O[C@@H]2O[C@H](CO)[C@@H](O)[C@H](O)[C@H]2O[C@H]2C[C@](C)(N)[C@H](O)[C@H](C)O2)Oc2ccc(cc2Cl)[C@H]1O` [Vancomycin, vancomycin] was tested, and the “clinical signs on day 10” value (PO gavage QD days 0 to 4) was “exhibited clinical signs” and the “clinical score of survivors” value (score 0 to 4, after end of treatment, days 7 to 10) was “above 0”.
